Where two headings read alike, the source gives them in different places.
Tests used:
[1] = molecular target: T1, GSK3a (GST-full length GSK3a) (Homo sapiens, UniProt P49840); experiment: GSK3a TR-FRET kinase inhibition assay; assay type: biochemical
T1 construct: GST-full length GSK3a [SignalChem G08-10G]; purchased SignalChem G08-10G
Method: (§1) TR-FRET assay was performed in a white, 384 well, low volume, flat bottom plate (Grenier). After a 30 minute preincubation in assay buffer with the indicated concentration of compound, the kinase activity was initiated by the addition of the substrates. 1 nM GSK3a (GST-full length GSK3a [SignalChem G08-10G]) or 1 nM GSK3b (GST-full length GSK3b: [SignalChem G08-9G]) were then incubated at ambient temperature for 100 minutes in 10 μl of 50 mM Tris, pH 7.5, 20 mM MgCl2, 0.05 mM DTT, 100 μg/ml BSA and 1% DMSO, with 200 nM biotinylated peptide substrate (biotinylated and S645 phosphorylated glycogen synthase 631-650) and ATP (e.g., at 2 μM, 4 μM, 10 μM, 100 μM, or 1 mM). The kinase activity was quenched with 2 μl of 250 mM EDTA. A 10 μl volume of 40 nM Strepavidin-d2, 2 nM […] antibody in TR-FRET Detection Buffer (Invitrogen) was then added. After 60 min at room temperature the plate was read on Envision plate reader using Ex: 340 nm, Em: 615 nm and […]. The normalized 665/615 Signal ratio versus log compound concentration was analyzed by XLFIT to yield IC50 values.

[2] = molecular target: T2, GSK3b (GST-full length GSK3b) (Homo sapiens, UniProt P49841); experiment: GSK3b TR-FRET kinase inhibition assay; assay type: biochemical
T2 construct: GST-full length GSK3b: [SignalChem G08-9G]; purchased SignalChem G08-9G
T2 sequence (P49841 whole entry): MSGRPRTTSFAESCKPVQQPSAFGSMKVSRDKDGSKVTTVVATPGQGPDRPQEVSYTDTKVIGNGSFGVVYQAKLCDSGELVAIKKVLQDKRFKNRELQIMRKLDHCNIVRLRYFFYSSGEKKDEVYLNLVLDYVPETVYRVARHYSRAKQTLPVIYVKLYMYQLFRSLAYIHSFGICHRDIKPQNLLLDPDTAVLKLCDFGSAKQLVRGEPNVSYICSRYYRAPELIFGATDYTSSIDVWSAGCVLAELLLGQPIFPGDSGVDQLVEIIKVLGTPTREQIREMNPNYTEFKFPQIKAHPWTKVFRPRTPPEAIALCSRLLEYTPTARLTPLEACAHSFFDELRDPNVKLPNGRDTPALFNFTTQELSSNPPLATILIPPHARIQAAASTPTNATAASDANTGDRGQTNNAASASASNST
Method: as §1

[3] = 1 mM ATP, Table 5, read-out: GSK3α TR-FRET 1 mM ATP Average IC50
[4] = 1 mM ATP, Table 5, read-out: GSK3β TR-FRET 1 mM ATP Average IC50
[5] = 100 μM ATP, read-out: GSK3a 100 μM ATP Average IC50
[6] = 100 μM ATP, read-out: GSK3b 100 μM ATP Average IC50
[7] = 1 mM ATP, Table 3, read-out: GSK3a TR-FRET 1 mM ATP Average IC50
[8] = 1 mM ATP, Table 3, read-out: GSK3b TR-FRET 1 mM ATP Average IC50

T1 sequence (P49840 whole entry): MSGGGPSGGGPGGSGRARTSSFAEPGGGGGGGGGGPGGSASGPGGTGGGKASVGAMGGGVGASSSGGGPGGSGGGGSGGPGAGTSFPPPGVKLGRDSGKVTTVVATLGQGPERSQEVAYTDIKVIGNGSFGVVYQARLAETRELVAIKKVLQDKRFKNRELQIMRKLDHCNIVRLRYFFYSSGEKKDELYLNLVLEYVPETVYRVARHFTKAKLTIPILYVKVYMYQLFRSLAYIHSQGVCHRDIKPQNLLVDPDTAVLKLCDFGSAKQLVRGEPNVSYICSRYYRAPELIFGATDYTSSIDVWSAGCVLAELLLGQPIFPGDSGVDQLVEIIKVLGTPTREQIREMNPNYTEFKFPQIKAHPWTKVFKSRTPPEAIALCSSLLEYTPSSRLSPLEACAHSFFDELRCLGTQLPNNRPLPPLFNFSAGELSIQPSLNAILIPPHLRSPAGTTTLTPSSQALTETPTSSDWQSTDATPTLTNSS

SMILES	IC50 [1, 3] [µM]	IC50 [2, 4] [µM]	IC50 [1, 7] [µM]	IC50 [2, 8] [µM]	also measured
CC1(C)CC(=O)C2=C(C1)Nc1ncc(C(F)(F)F)cc1C2(C)c1cccc(C(F)F)c1 (single isomer, unassigned) [646A]	5 to 20	5 to 20	–	–	–
CC1(C)CC(=O)C2=C(C1)Nc1ncc(C(F)(F)F)cc1C2(C)c1cccc(C(F)F)c1 (single isomer, unassigned) [646B]	1 to 5	0.1 to 1	–	–	–
CC1(C)CC2=C(C(=O)N1)C(C)(c1cccc(S(C)(=O)=O)c1)c1cc(C3CC3)cnc1N2 (single isomer, unassigned) [647A]	0.1 to 1	0.1 to 1	–	–	–
CC1(C)CC2=C(C(=O)N1)C(C)(c1cccc(S(C)(=O)=O)c1)c1cc(C3CC3)cnc1N2 (single isomer, unassigned) [647B]	5 to 20	5 to 20	–	–	–
CC(C)Oc1cccc(C2(C)C3=C(CC(C)(C)CC3=O)Nc3ncc(C(F)(F)F)cc32)c1 (single isomer, unassigned) [648A]	5 to 20	1 to 5	–	–	–
CC(C)Oc1cccc(C2(C)C3=C(CC(C)(C)CC3=O)Nc3ncc(C(F)(F)F)cc32)c1 (single isomer, unassigned) [648B]	1 to 5	0.1 to 1	–	–	–
Cn1ncc2c3c(ncc21)NC1=C(C(=O)CC(C)(C)C1)C3(C)c1cccc(S(C)(=O)=O)c1 (single isomer, unassigned) [649A]	5 to 20	1 to 5	–	–	–
Cn1ncc2c3c(ncc21)NC1=C(C(=O)CC(C)(C)C1)C3(C)c1cccc(S(C)(=O)=O)c1 (single isomer, unassigned) [649B]	5 to 20	5 to 20	–	–	–
CC(C)Oc1cccc(C2(C)C3=C(CC(C)(C)CC3=O)Nc3ncc(C(F)F)c(C#N)c32)c1 (single isomer, unassigned) [650A]	5 to 20	1 to 5	–	–	–
CC(C)Oc1cccc(C2(C)C3=C(CC(C)(C)CC3=O)Nc3ncc(C(F)F)c(C#N)c32)c1 (single isomer, unassigned) [650B]	0.1 to 1	0.1 to 1	–	–	–
CC1(C)CC2=C(C(=O)N1)C(C)(c1cccc(S(C)(=O)=O)c1)c1cc(C(F)(F)F)cnc1N2 (single isomer, unassigned) [651B]	0.1 to 1	0.1 to 1	–	–	–
CC1(C)CC(=O)C2=C(C1)Nc1ncccc1C2(C)c1cccc(N(CC2CC2)c2ncccn2)c1 (single isomer, unassigned) [652A]	5 to 20	5 to 20	–	–	–
CC1(C)CC(=O)C2=C(C1)Nc1ncccc1C2(C)c1cccc(N(CC2CC2)c2ncccn2)c1 (single isomer, unassigned) [652B]	≤ 0.1	5 to 20	–	–	–
CC1(C)CC(=O)C2=C(C1)Nc1ncc(F)cc1C2(C)c1cccc(-c2ccncc2CC(F)(F)F)c1 (single isomer, unassigned) [653A]	1 to 5	1 to 5	–	–	–
CC1(C)CC(=O)C2=C(C1)Nc1ncc(F)cc1C2(C)c1cccc(-c2ccncc2CC(F)(F)F)c1 (single isomer, unassigned) [653B]	≤ 0.1	≤ 0.1	–	–	–
CC1(C)CC(=O)C2=C(C1)Nc1ncc(F)c(C#N)c1C2(C)c1cccc(-c2ccncc2CC(F)(F)F)c1 (single isomer, unassigned) [656A]	0.1 to 1	0.1 to 1	–	–	–
CC1(C)CC(=O)C2=C(C1)Nc1ncc(F)c(C#N)c1C2(C)c1cccc(-c2ccncc2CC(F)(F)F)c1 (single isomer, unassigned) [656B]	≤ 0.1	≤ 0.1	–	–	–
CC1(C)CC(=O)C2=C(C1)Nc1ncc(I)c(Br)c1C2(C)c1ccccc1 (single isomer, unassigned) [657A]	5 to 20	5 to 20	–	–	–
CC1(C)CC(=O)C2=C(C1)Nc1ncc(I)c(Br)c1C2(C)c1ccccc1 (single isomer, unassigned) [657B]	5 to 20	1 to 5	–	–	–
CC1(C)CC(=O)C2=C(C1)Nc1ncccc1C2(C)c1ccccc1 (single isomer, unassigned) [Compound 101B]	–	–	–	–	IC50 ([1]; 10 μM ATP, read-out: GSK3a 10 μM ATP Average IC50): 5 to 20 µM; IC50 [1, 5]: 20 to 60 µM; IC50 ([2]; 10 μM ATP, read-out: GSK3b 10 μM ATP Average IC50): 1 to 5 µM; IC50 [2, 6]: 20 to 60 µM
Cc1ccnc2c1C(C)(c1ccccc1)C1=C(CC(C)(C)CC1=O)N2 (single isomer, unassigned) [Compound 104A]	–	–	1 to 5	1 to 5	IC50 [1, 5]: ≤ 0.1 µM; IC50 [2, 6]: 0.1 to 1 µM

SMILES	IC50 [1, 3] [µM]	IC50 [2, 4] [µM]	IC50 [1, 7] [µM]	IC50 [2, 8] [µM]	also measured
CC1(C)CC(=O)C2=C(C1)Nc1nccc(F)c1C2(C)c1ccccc1 (single isomer, unassigned) [Compound 105B]	–	–	1 to 5	1 to 5	–
CC1(C)CC(=O)C2=C(C1)Nc1ncc(C#N)cc1C2(C)c1ccccc1 (single isomer, unassigned) [Compound 109A]	–	–	1 to 5	1 to 5	–
CC1(C)CC(=O)C2=C(C1)Nc1ncc(C#N)cc1C2(C)c1ccccc1 (single isomer, unassigned) [Compound 109B]	–	–	5 to 20	5 to 20	–
C=Cc1ccnc2c1C(C)(c1ccccc1)C1=C(CC(C)(C)CC1=O)N2 (single isomer, unassigned) [Compound 111A]	–	–	0.1 to 1	0.1 to 1	IC50 [1, 5]: ≤ 0.1 µM; IC50 [2, 6]: ≤ 0.1 µM
CCc1ccnc2c1C(C)(c1ccccc1)C1=C(CC(C)(C)CC1=O)N2 (single isomer, unassigned) [Compound 112A]	–	–	1 to 5	1 to 5	IC50 [1, 5]: ≤ 0.1 µM; IC50 [2, 6]: ≤ 0.1 µM
CCc1cnc2c(c1)C(C)(c1ccccc1)C1=C(CC(C)(C)CC1=O)N2 (single isomer, unassigned) [Compound 113A]	–	–	–	1 to 5	IC50 [1, 5]: 1 to 5 µM; IC50 [2, 6]: 0.1 to 1 µM
CC1(C)CC(=O)C2=C(C1)Nc1ncc(F)c(F)c1C2(C)c1ccccc1 (single isomer, unassigned) [Compound 116B]	–	–	0.1 to 1	0.1 to 1	–
CC1(C)CC(=O)C2=C(C1)Nc1ncc(C3CC3)cc1C2(C)c1ccccc1 (single isomer, unassigned) [Compound 117A]	–	–	5 to 20	1 to 5	IC50 [1, 5]: 0.1 to 1 µM; IC50 [2, 6]: 0.1 to 1 µM
CC1(C)CC(=O)C2=C(C1)Nc1ncc3c(c1C2(C)c1ccccc1)CCC3 (single isomer, unassigned) [Compound 118B]	–	–	1 to 5	1 to 5	–
CC(C)c1cnc2c(c1)C(C)(c1ccccc1)C1=C(CC(C)(C)CC1=O)N2 (single isomer, unassigned) [Compound 119A]	–	–	5 to 20	1 to 5	IC50 [1, 5]: 0.1 to 1 µM; IC50 [2, 6]: 0.1 to 1 µM
CC(C)c1ccnc2c1C(C)(c1ccccc1)C1=C(CC(C)(C)CC1=O)N2 (single isomer, unassigned) [Compound 120A]	–	–	1 to 5	0.1 to 1	–
CC1(C)CC(=O)C2=C(C1)Nc1ncc(F)c(C#N)c1C2(C)c1ccccc1 (single isomer, unassigned) [Compound 121B]	–	–	1 to 5	1 to 5	–
CC1(C)CC(=O)C2=C(C1)Nc1ncc(C3CCC3)cc1C2(C)c1ccccc1 (single isomer, unassigned) [Compound 122A]	–	–	–	5 to 20	IC50 [1, 5]: 1 to 5 µM; IC50 [2, 6]: 1 to 5 µM
CC1(C)CC(=O)C2=C(C1)Nc1nccc(CC3CC3)c1C2(C)c1ccccc1 (single isomer, unassigned) [Compound 123A]	–	–	1 to 5	1 to 5	–
CC1(C)CC(=O)C2=C(C1)Nc1nccc(CC3CC3)c1C2(C)c1ccccc1 (single isomer, unassigned) [Compound 123B]	–	–	1 to 5	1 to 5	–
CC1(C)CC(=O)C2=C(C1)Nc1ncc(C(C)(C)C)cc1C2(C)c1ccccc1 (single isomer, unassigned) [Compound 124A]	–	–	5 to 20	5 to 20	IC50 [1, 5]: 5 to 20 µM; IC50 [2, 6]: 5 to 20 µM
CC1(C)CC(=O)C2=C(C1)Nc1ncc(C(C)(C)C)cc1C2(C)c1ccccc1 (single isomer, unassigned) [Compound 124B]	–	–	5 to 20	5 to 20	–
CC1(C)CC(=O)C2=C(C1)Nc1ncc(F)c(C3CC3)c1C2(C)c1ccccc1 (single isomer, unassigned) [Compound 125A]	–	–	0.1 to 1	0.1 to 1	–
CC1(C)CC(=O)C2=C(C1)Nc1ncc(F)c(C3CC3)c1C2(C)c1ccccc1 (single isomer, unassigned) [Compound 125B]	–	–	1 to 5	1 to 5	–
CC1(C)CC(=O)C2=C(C1)Nc1nccc(C(F)(F)F)c1C2(C)c1ccccc1 (single isomer, unassigned) [Compound 127B]	–	–	5 to 20	5 to 20	–
CC1(C)CC(=O)C2=C(C1)Nc1ncc(C(F)(F)F)cc1C2(C)c1ccccc1 (single isomer, unassigned) [Compound 128A]	–	–	5 to 20	1 to 5	–
